Assay results published in patent publication US20100323890A1, “METHOD FOR IMPROVING THE RESISTANCE OF PLANTS TO STRESS AND CORRESPONDING PRODUCTS” (priority 2007, published 2010).

Test system: Arabidopsis thaliana
Test: Arabidopsis thaliana seedling growth on culture medium containing 1 μM atrazine (atrazine tolerance)
Format: in vivo
Settings: 15 days of incubation
Method: In this context, a mixture of sucrose and putrescine were tested. […] For a first control, no carbohydrate or polyamine were added to the culture medium. For a second control, only sucrose, at a rate of 3%, which is equivalent to a concentration of 87 millimolar, was added thereto. Finally, for a test according to the present invention, sucrose, at a rate of 3% and putrescine, at a rate of 3 to 6 mM, were added to the culture medium. The Petri dishes were stored for 48 hrs at 4° C. and transferred to 22° C. for a photoperiod of 16 hours per day at 4500 lux. The parameters characterizing the plant growth were referenced after 15 days of incubation: the biomass (% fresh weight) and chlorophyll (μg/seedling) produced were determined; the development of the main root (cm) and the secondary root system (primordia/seedlings) were recorded.

SMILES | seedling development in the presence of atrazine (FIG. 1) (no carbohydrate or polyamine added) | effect on atrazine inhibition / atrazine resistance, by size of the seedlings (FIG. 1)
CCNc1nc(Cl)nc(NC(C)C)n1 [atrazine, 2-chloro-4-ethylamino-6-isopropylamine-1,3,5-triazine] | unable to develop the photosynthetic apparatus | –
OC[C@H]1O[C@@](CO)(O[C@H]2O[C@H](CO)[C@@H](O)[C@H](O)[C@H]2O)[C@@H](O)[C@@H]1O [sucrose] | – | makes it possible to lift the atrazine inhibition effect
